# Test results reported in ChEMBL document CHEMBL6115037, “Discovery of novel small molecules targeting TGF-β signaling for the treatment of non-small cell lung cancer” (Eur J Med Chem, 2025).
# Active and inactive are the calls of the source. No cut-off for these calls is given here.
# Key:
# A549 [1] = experiment: Antiproliferative activity against human A549 cells assessed as inhibition of cell growth measured after 72 hrs by SRB method; type: functional, cell-based; details: A549, 72 h
# [2] = Permeability of the compound in PBS buffer assessed as drug recovery at pH 7.4 incubated for 16 hrs by PAMPA method; type: ADME; details: read-out: Drug recovery
# [3] = Water solubility of the compound […] at pH 9.0 incubated for 24 hrs under shaking condition by HPLC analysis; type: physicochemical
# [4] = Water solubility of the compound in PBS buffer at pH 7.4 incubated for 24 hrs under shaking condition by HPLC analysis; type: physicochemical
# [5] = Water solubility of the compound in PBS buffer at pH 2.0 incubated for 24 hrs under shaking condition by HPLC analysis; type: physicochemical
# A549 [6] = experiment: Inhibition of cell invasion in human A549 cells incubated for 48 hrs by crystal violet staining based transwell assay; type: functional; details: dose 0.05-0.5 µM
# A549 [7] = experiment: Antitumor activity against human A549 cells xenografted in female BALB/c nude mouse model assessed as decrease in TbetaRI expression level at 10 mg/kg via gavage by Western blot analysis; type: functional, organism-based
# NCI-H1299 [8] = experiment: Antiproliferative activity against human NCI-H1299 cells harbouring TbetaI by Western blot analysis; type: functional, cell-based; details: dose 0.05-0.5 µM
# NCI-H522 = experiment: Antiproliferative activity against human NCI-H522 cells assessed as inhibition of cell growth measured after 72 hrs by SRB method; type: functional, cell-based; details: NCI-H522, 72 h
# A549 [9] = experiment: Downregulation of TbetaRI protein expression in human A549 cells measured after 48 hrs by Western blot analysis; type: functional, cell-based; details: dose 0.05-0.5 µM
# A549 [10] = experiment: Induction of cell cycle arrest in human A549 cells assessed as accumulation at G2/M phase measured after 48 hrs by flow cytometric analysis; type: functional, cell-based; details: dose 0.05-0.5 µM
# A549 [11] = experiment: Antiproliferative activity against human A549 cells harbouring TbetaI knockout at 0.5 uM by Western blot analysis; type: functional, cell-based
# A549 [12] = experiment: Inhibition of cell migration in human A549 cells at 0.5 uM incubated for 48 hrs by wound healing assay relative to control; type: functional
# A549 [13] = experiment: Downregulation of Smad2/3 phosphorylation level in human A549 cells measured after 48 hrs by Western blot analysis; type: functional, cell-based; details: dose 0.05-0.5 µM
# A549 [14] = experiment: Antiproliferative activity against human A549 cells harbouring si-NC at 0.5 uM by Western blot analysis relative to control; type: functional
# A549 [15] = experiment: Inhibition of cell invasion in human A549 cells at 0.5 uM incubated for 48 hrs by crystal violet staining based transwell assay relative to control; type: functional
# A549 [16] = experiment: Antitumor activity against human A549 cells xenografted in female BALB/c nude mouse model assessed as decrease in TbetaRI level at 10 mg/kg via gavage by immunochemical staining based analysis; type: functional, organism-based
# A549 [17] = experiment: Antitumor activity against human A549 cells xenografted in female BALB/c nude mouse model assessed as decrease in tumor volume at 10 mg/kg via gavage fed with corn oil and measured every other day; type: functional, organism-based
# NCI-H1299 [18] = experiment: Antiproliferative activity against human NCI-H1299 cells assessed as inhibition of cell growth measured after 72 hrs by SRB method; type: functional, cell-based; details: NCI-H1299, 72 h
# A549 [19] = experiment: Inhibition of colony formation in human A549 cells at 0.5 uM measured after 48 days by crystal violet staining based inverted microscopic analysis relative to control; type: functional; details: A549, 1152 h, time 48 day
# A549 [20] = experiment: Induction of cell apoptosis in human A549 cells assessed as increase in early apoptotic cells at 0.05 uM measured after 48 hrs by Annexin V-FITC/PI staining based flow cytometry analysis; type: functional
# A549 [21] = experiment: Antitumor activity against human A549 cells xenografted in female BALB/c nude mouse model assessed as decrease in Ki-67 expression at 10 mg/kg via gavage by immunochemical staining based analysis; type: functional, organism-based
# A549 [22] = experiment: Inhibition of cell migration in human A549 cells incubated for 48 hrs by wound healing assay; type: functional, cell-based; details: dose 0.05-0.5 µM
# A549 [23] = experiment: Antitumor activity against human A549 cells xenografted in female BALB/c nude mouse model assessed as decrease in tumor weight at 10 mg/kg via gavage fed with corn oil and measured every other day; type: functional, organism-based
# [24] = Toxicity in female BALB/c nude mouse assessed as effect on body weight loss at 10 mg/kg via gavage fed with corn oil for every other day; type: organism-based; details: in vivo, po
# NCI-H1299 [25] = experiment: Inhibition of colony formation in human NCI-H1299 cells at 0.05 to 0.5 uM measured after 48 hrs by crystal violet staining based inverted microscopic analysis; type: functional, cell-based; details: dose 0.05-0.5 µM
# A549 [26] = experiment: Induction of cell cycle arrest in human A549 cells assessed as accumulation at G2/M phase at high concentration measured after 48 hrs by flow cytometric analysis; type: functional, cell-based
# NCI-H441 = experiment: Antiproliferative activity against human NCI-H441 cells assessed as inhibition of cell growth measured after 72 hrs by SRB method; type: functional, cell-based; details: NCI-H441, 72 h
# A549 [27] = experiment: Induction of cell apoptosis in human A549 cells assessed as increase in early apoptotic cells measured after 48 hrs by Annexin V-FITC/PI staining based flow cytometry analysis; type: functional; details: dose 0.05-0.5 µM
smiles,measurement,setting,value
O=C(NC1CCCC(O)C1)c1cccc2c3c([nH]c12)CN(C(=O)Cc1ccccc1F)CC3 (stereo not drawn),IC50,A549 [1],120 nM
O=C(Cc1ccccc1F)N1CCc2c([nH]c3c(C(=O)N4CCC(O)C4)cccc23)C1 (stereo not drawn),IC50,A549 [1],> 5000 nM
O=C(NCCO)c1cccc2c3c([nH]c12)CN(S(=O)(=O)Cc1ccccc1F)CC3,IC50,A549 [1],1640 nM
O=C(NC1CCC(O)CC1)c1cccc2c3c([nH]c12)CN(C(=O)Cc1ccccc1F)CC3 (stereo not drawn),IC50,A549 [1],490 nM
NC1CCC(OC(=O)c2cccc3c4c([nH]c23)CN(C(=O)Cc2ccccc2F)CC4)CC1 (stereo not drawn),IC50,A549 [1],> 5000 nM
O=C(NC12CC3CC(CC(O)(C3)C1)C2)c1cccc2c3c([nH]c12)CN(C(=O)Cc1ccccc1F)CC3,IC50,A549 [1],130 nM
O=C(NCCO)c1cccc2c3c([nH]c12)CN(C(=O)Cc1c(F)cccc1F)CC3,IC50,A549 [1],> 5000 nM
O=C(NCCO)c1cc(NC(=O)C2CCOCC2)cc2c3c([nH]c12)CN(C(=O)Cc1ccccc1F)CC3,IC50,A549 [1],> 5000 nM
O=C(NC1CCCC1O)c1cccc2c3c([nH]c12)CN(C(=O)Cc1ccccc1F)CC3 (stereo not drawn),IC50,A549 [1],930 nM
C=CC(=O)Nc1cc(C(=O)NCCO)c2[nH]c3c(c2c1)CCN(C(=O)Cc1ccccc1F)C3,IC50,A549 [1],> 5000 nM
O=C(NC1CCC(O)C1)c1cccc2c3c([nH]c12)CN(C(=O)Cc1ccccc1F)CC3 (stereo not drawn),IC50,A549 [1],220 nM
O=C(Cc1ccccc1F)N1CCc2c([nH]c3c(C(=O)N4CCNCC4)cccc23)C1,IC50,A549 [1],> 5000 nM
C[C@]12CC[C@H]3[C@@H](CCC4=CC(=O)CC[C@@]43C)[C@@H]1CC[C@@H]2O [TESTOSTERONE],recovery at 16 h,[2],85.6%
CN(Cc1cnc2nc(N)nc(N)c2n1)c1ccc(C(=O)N[C@@H](CCC(=O)O)C(=O)O)cc1 [METHOTREXATE],recovery at 16 h,[2],96.2%
O=C(NC1CCCCC1O)c1cccc2c3c([nH]c12)CN(C(=O)Cc1ccccc1F)CC3 (stereo not drawn),IC50,A549 [1],> 5000 nM
O=C(Cc1ccccc1F)N1CCc2c([nH]c3c(C(=O)N4CCN(C5COC5)CC4)cccc23)C1,IC50,A549 [1],> 5000 nM
O=C(NCCO)c1cc(NC(=O)C2CCNCC2)cc2c3c([nH]c12)CN(C(=O)Cc1ccccc1F)CC3,IC50,A549 [1],> 5000 nM
NCCC(=O)Nc1cc(C(=O)NCCO)c2[nH]c3c(c2c1)CCN(C(=O)Cc1ccccc1F)C3,IC50,A549 [1],> 5000 nM
O=C(NCCO)c1cccc2c3c([nH]c12)CN(C(=O)NCc1ccccc1F)CC3,IC50,A549 [1],> 5000 nM
O=C(Cc1ccccc1)N1CCc2c([nH]c3ccccc23)C1,recovery at 16 h,[2],24.4%
same,solubility thermodynamic at 24 h,[3],10.7 µM
same,IC50,A549 [1],9130 nM
same,solubility thermodynamic at 24 h,[4],7.24 µM
same,solubility thermodynamic at 24 h,[5],2.23 µM
CC(=O)Nc1cc(C(=O)NCCO)c2[nH]c3c(c2c1)CCN(C(=O)Cc1ccccc1F)C3,IC50,A549 [1],> 5000 nM
O=C(Cc1ccccc1F)N1CCc2c([nH]c3c(C(=O)N4CCC(CO)CC4)cccc23)C1,IC50,A549 [1],> 5000 nM
O=C(NC1CCC(C(=O)O)C1)c1cccc2c3c([nH]c12)CN(C(=O)Cc1ccccc1F)CC3 (stereo not drawn),IC50,A549 [1],> 5000 nM
O=C(NCCO)c1cccc2c3c([nH]c12)CN(C(=O)Cc1ccco1)CC3,IC50,A549 [1],4010 nM
O=C(NCCO)c1cccc2c3c([nH]c12)CN(C(=O)Nc1ccccc1F)CC3,IC50,A549 [1],> 5000 nM
NC1CCC(NC(=O)c2cccc3c4c([nH]c23)CN(C(=O)Cc2ccccc2F)CC4)C1 (stereo not drawn),IC50,A549 [1],> 5000 nM
O=C(NCCO)c1cccc2c3c([nH]c12)CN(C(=O)Cc1cccs1)CC3,IC50,A549 [1],380 nM
O=C(Cc1ccccc1F)N1CCc2c([nH]c3c(C(=O)N4CCC(O)CC4)cccc23)C1,IC50,A549 [1],> 5000 nM
O=C(NC1CCC(O)C1)c1cccc2c3c([nH]c12)CN(C(=O)Cc1cccs1)CC3 (stereo not drawn),inhibition,A549 [6],Dose-dependent-effect
same,Activity,A549 [7],Active
same,Activity,NCI-H1299 [8],Dose-dependent-effect
same,IC50,NCI-H522,260 nM
same,Activity,A549 [9],Dose-dependent-effect
same,Activity,A549 [10],Dose-dependent-effect
same,Activity,A549 [11],inactive
same,inhibition at 0.5 µM,A549 [12],100%
same,Activity,A549 [13],Dose-dependent-effect
same,Activity,A549 [14],100%
same,inhibition at 0.5 µM,A549 [15],100%
same,Activity,A549 [16],Active
same,recovery at 16 h,[2],65.8%
same,solubility thermodynamic at 24 h,[3],50.4 µM
same,IC50,A549 [1],50 nM
same,Activity,A549 [17],Active
same,IC50,NCI-H1299 [18],210 nM
same,inhibition at 0.5 µM,A549 [19],100%
same,Activity,A549 [20],Active
same,Activity,A549 [21],Active
same,inhibition,A549 [22],Dose-dependent-effect
same,Activity,A549 [23],Active
same,Activity,[24],Non-toxic
same,inhibition,NCI-H1299 [25],Active
same,Activity,A549 [26],Active
same,IC50,NCI-H441,90 nM
same,solubility thermodynamic at 24 h,[4],41.4 µM
same,solubility thermodynamic at 24 h,[5],40 µM
same,Activity,A549 [27],Dose-dependent-effect
O=C(NCCO)c1cccc2c3c([nH]c12)CN(C(=O)Cc1ccccc1F)CC3,IC50,A549 [1],220 nM
O=C(NC1CCCC1O)c1cccc2c3c([nH]c12)CN(C(=O)Cc1cccs1)CC3 (stereo not drawn),IC50,A549 [1],70 nM
